We go through 24 compounds from US7402688B2, “2,2-Di-substituted 1alpha,25-dihydroxy-19-norvitamin D derivative” (Wisconsin Alumni Research Foundation, priority 2002, dated 2008).

SMILES strings stand for the structures.

In one assay the test system is cellular differentiation.
Assay: not given
Particulars: compared with 1,25-(OH)2D3; cited from earlier work.
For the compound `C[C@H](CCCC(C)(C)O)[C@H]1CC[C@H]2/C(=C/C=C3C[C@@H](O)C[C@H](O)C3)CCC[C@]12C` [19-nor-1,25-(OH)2D3, 19-nor-1α,25-dihydroxyvitamin D3], the cellular effects result was “equivalent to 1,25-(OH)2D3”.

Another assay addresses T1, vitamin D receptor (VDR) (Bos taurus, UniProt Q28037).
T1 construct: vitamin D receptor (VDR) derived from calf thymus was evaluated; purchased Yamasa Shoyu Co., Ltd. (Choshi, Chiba, Japan) Lot; No. 111931; host or cells: calf thymus (tissue preparation)
T1 sequence (Q28037 1-426): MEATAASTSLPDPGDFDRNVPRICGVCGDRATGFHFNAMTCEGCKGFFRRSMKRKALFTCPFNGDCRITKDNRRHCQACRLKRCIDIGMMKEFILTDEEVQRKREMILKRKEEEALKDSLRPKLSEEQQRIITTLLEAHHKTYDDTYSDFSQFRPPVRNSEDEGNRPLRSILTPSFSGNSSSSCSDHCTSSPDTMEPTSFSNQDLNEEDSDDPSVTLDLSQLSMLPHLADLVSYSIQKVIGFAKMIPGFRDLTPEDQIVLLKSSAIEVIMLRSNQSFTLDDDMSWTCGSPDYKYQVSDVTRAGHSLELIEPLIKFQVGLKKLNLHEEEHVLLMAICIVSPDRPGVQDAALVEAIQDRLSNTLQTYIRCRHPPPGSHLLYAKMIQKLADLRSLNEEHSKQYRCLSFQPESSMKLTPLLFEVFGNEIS
The experiment in a line: Binding assay for calf thymus vitamin D receptor (VDR). Particulars: relative to 1α,25-dihydroxyvitamin D3 = 1; ratio of concentrations for 50% inhibition of [3H]-1α,25-dihydroxyvitamin D3 binding to calf thymus VDR. As for the experimental part:
Binding Assay for Calf Thymus Vitamin D Receptor (VDR)
The binding ability of the compounds of the present inventions described in the above Examples to vitamin D receptor (VDR) derived from calf thymus was evaluated.
The binding assay was carried out according to the manufacturer's instruction of Yamasa Shoyu Co., Ltd. as follows.
An EtOH solution (sample) containing an increasing amount of each 1α,25-dihydroxyvitamin D3 (as a standard reference material), and Compounds YI-1a, YI-1b, YI-2a, YI-3a, YI-3b, YI-4a, YI-4b, YI-5a, YI-5b, 20-Epi-YI-1a, 20-Epi-YI-1b, 20-Epi-YI-2a, 20-Epi-YI-3a, 20-Epi-YI-4a, 20-Epi-YI-4b, 20-Epi-YI-5a, 20-Epi-YI-5b, 20-Epi-YI-6a, 20-Epi-YI-6b, 20-Epi-YI-7a, 20-Epi-YI-7b, 20-Epi-YI-8a, and 20-Epi-YI-8b was prepared, that is, dilution series were prepared wherein final concentrations of each compounds in a mixture, which is prepared by following step, of receptor solutions, samples, and [^3H]-1α,25-dihydroxyvitamin D3 solutions are 100 nM, 30 nM 10 nM, 1 nM, 300 pM, 100 pM, 30 pM, 10 pM, 3 pM, and 1 pM.
Freeze-dried calf thymus vitamin D receptors (Lot. No. 111931) were purchased from Yamasa Shoyu Co., Ltd. (Choshi, Chiba, Japan) and were dissolved in 45 mL of phosphate buffer (0.3 M KCl, 0.05 M K2HPO4—KH2PO4, pH 7.4) just before use to use as a receptor solution.
50 μL of sample of Compounds YI-1a, YI-1b, YI-2a, YI-3a, YI-3b, YI-4a, YI-4b, YI-5a, YI-5b, 20-Epi-YI-1a, 20-Epi-YI-1b, 20-Epi-YI-2a, 20-Epi-YI-3a, 20-Epi-YI-4a, 20-Epi-YI-4b, 20-Epi-YI-5a, 20-Epi-YI-5b, 20-Epi-YI-6a, 20-Epi-YI-6b, 20-Epi-YI-7a, 20-EPi-YI-7b, 20-Epi-YI-8a, 20-Epi-YI-8b, or 1α,25-dihydroxyvitamin D3 and 500 μL of the receptor solution were pipetted into glass culture tubes. The mixture was vortexed 2-3 times, and incubated for 1 h at room temperature. To each tubes, [^3H]-1α,25-dihydroxyvitamin D3 (ca. 10000 dpm) in 50 μL of EtOH was added, the mixture was vortexed 2-3 times, and the whole mixture was incubated for 18 h at 4° C. (in a refrigerator). Then, 200 μL of DCC (dextran-coated charcoal; purchased from Yamasa Shoyu) was added to each tubes, and allowed to stand for 30 min at 4° C. Bound and free [^3]-1α,25-dihydroxyvitamin D3 were separated by centrifugation at 3000 rpm for 15 min at 4° C. Aliquots (500 μL) of the supernatant were put into vial bottles from each tube, and were mixed with 10 mL of ACS-II fluid scintillator (Amersham, Buckinghamshire, U.K.) and submitted for radioactivity counting.
The relative binding affinity of the vitamin D derivatives of the present inventions to VDR was calculated regarding binding affinity of 1α,25-dihydroxyvitamin D3 to VDR as 1. The following equation was used to calculate the relative VDR binding affinity: X=y/x
X: the relative binding affinity of the compound of the present inventions to VDR
y: the concentration of 1α,25-dihydroxyvitamin D3 required for 50% inhibition of binding [^3H]-1α,25-dihydroxyvitamin D3 to VDR
x: the concentration of the compound of the present inventions required for 50% inhibition of binding [^3H]-1α,25-dihydroxyvitamin D3 to VDR
In the case of `C[C@@H](CCCC(C)(C)O)C1CCC2/C(=C/C=C3C[C@@H](O)C(OCCO)[C@H](O)C3)CCCC21C` (single isomer, unassigned) [Compound 20-Epi-YI-6a], the “VDR affinity (relative binding affinity X=y/x)” value stood at 1. `C[C@@H](CCCC(C)(C)O)C1CCC2/C(=C/C=C3C[C@@H](O)C(OCCO)[C@H](O)C3)CCCC21C` (single isomer, unassigned) [Compound 20-Epi-YI-6b]: the “VDR affinity (relative binding affinity X=y/x)” value turned out to be 5. The same measure, in the same setting: under `C[C@@H](CCCC(C)(C)O)C1CCC2/C(=C/C=C3C[C@@H](O)C4(CO4)[C@H](O)C3)CCCC21C` (stereo partly drawn) [Compound 20-Epi-YI-1a, (20S)-1α,25-dihydroxy-2β,2′-epoxy-19-norvitamin D3] stands 1/2; under `C[C@@H](CCCC(C)(C)O)C1CCC2/C(=C/C=C3C[C@@H](O)C4(CO4)[C@H](O)C3)CCCC21C` (stereo partly drawn) [Compound 20-Epi-YI-1b, (20S)-1α,25-dihydroxy-2α,2′-epoxy-19-norvitamin D3], 1/5; under `C[C@@H](CCCC(C)(C)O)C1CCC2/C(=C/C=C3C[C@@H](O)C(O)(CF)[C@H](O)C3)CCCC21C` (stereo partly drawn) [Compound 20-Epi-YI-2a, (20S)-1α,2β,25-trihydroxy-2α-fluoromethyl-19-norvitamin D3], 2. In the case of `C[C@@H](CCCC(C)(C)O)C1CCC2/C(=C/C=C3C[C@@H](O)C(C)(O)[C@H](O)C3)CCCC21C` (stereo partly drawn) [Compound 20-Epi-YI-3a, (20S)-1α,2β,25-trihydroxy-2α-methyl-19-norvitamin D3], the “VDR affinity (relative binding affinity X=y/x)” value came out at 1. As to `CCC1(O)[C@H](O)CC(=C/C=C2\CCCC3(C)C2CCC3[C@@H](C)CCCC(C)(C)O)C[C@H]1O` (stereo partly drawn) [Compound 20-Epi-YI-4a, (20S)-1α,2β,25-trihydroxy-2α-ethyl-19-norvitamin D3], the “VDR affinity (relative binding affinity X=y/x)” value is reported as 1/20.

As for `CCC1(O)[C@H](O)CC(=C/C=C2\CCCC3(C)C2CCC3[C@@H](C)CCCC(C)(C)O)C[C@H]1O` (stereo partly drawn) [Compound 20-Epi-YI-4b, (20S)-1α,2α,25-trihydroxy-2β-ethyl-19-norvitamin D3], the “VDR affinity (relative binding affinity X=y/x)” value is recorded as 1/1000. As to `COCC1(O)[C@H](O)CC(=C/C=C2\CCCC3(C)C2CCC3[C@@H](C)CCCC(C)(C)O)C[C@H]1O` (stereo partly drawn) [Compound 20-Epi-YI-5a, (20S)-1α,2β,25-trihydroxy-2α-methoxymethyl-19-norvitamin D3], the “VDR affinity (relative binding affinity X=y/x)” value is recorded as 1/5. As for `COCC1(O)[C@H](O)CC(=C/C=C2\CCCC3(C)C2CCC3[C@@H](C)CCCC(C)(C)O)C[C@H]1O` (stereo partly drawn) [Compound 20-Epi-YI-5b, (20S)-1α,2α,25-trihydroxy-2β-methoxymethyl-19-norvitamin D3], the “VDR affinity (relative binding affinity X=y/x)” value is recorded as 1/10. On the same count and under the same terms, under `C[C@@H](CCCC(C)(C)O)C1CCC2/C(=C/C=C3C[C@@H](O)C(CCO)[C@H](O)C3)CCCC21C` (stereo partly drawn) [Compound 20-Epi-YI-7a] stands 1; under `C[C@@H](CCCC(C)(C)O)C1CCC2/C(=C/C=C3C[C@@H](O)C(CCO)[C@H](O)C3)CCCC21C` (stereo partly drawn) [Compound 20-Epi-YI-7b], 1/5; under `C[C@@H](CCCC(C)(C)O)C1CCC2/C(=C/C=C3C[C@@H](O)C(=CCO)[C@H](O)C3)CCCC21C` (stereo partly drawn) [Compound 20-Epi-YI-8a], 1.6. On the same count and under the same terms, to `C[C@@H](CCCC(C)(C)O)C1CCC2/C(=C/C=C3C[C@@H](O)C(=CCO)[C@H](O)C3)CCCC21C` (stereo partly drawn) [Compound 20-Epi-YI-8b, (20S)-1α,25-dihydroxy-2-[2-(hydroxyl)-ethylidene]-19-norvitamin D3] belongs 1/50. As to `C[C@H](CCCC(C)(C)O)C1CCC2/C(=C/C=C3C[C@@H](O)C4(CO4)[C@H](O)C3)CCCC21C` (stereo partly drawn) [YI-1a, 1α,25-dihydroxy-2β,2′-epoxy-19-norvitamin D3], the “VDR affinity (relative binding affinity X=y/x)” value is recorded as 1/23.

As to `C[C@H](CCCC(C)(C)O)C1CCC2/C(=C/C=C3C[C@@H](O)C4(CO4)[C@H](O)C3)CCCC21C` (stereo partly drawn) [YI-1b, 1α,25-dihydroxy-2α,2′-epoxy-19-norvitamin D3], the “VDR affinity (relative binding affinity X=y/x)” value is on record as 1/290. The same measure, in the same setting: to `C[C@H](CCCC(C)(C)O)C1CCC2/C(=C/C=C3C[C@@H](O)C(O)(CF)[C@H](O)C3)CCCC21C` (stereo partly drawn) [YI-2a, 1α,2β,25-trihydroxy-2α-fluoromethyl-19-norvitamin D3] belongs 1/43; to `C[C@H](CCCC(C)(C)O)C1CCC2/C(=C/C=C3C[C@@H](O)C(C)(O)[C@H](O)C3)CCCC21C` (stereo partly drawn) [YI-3a, 1α,2β,25-trihydroxy-2α-methyl-19-norvitamin D3], 1/3; to `C[C@H](CCCC(C)(C)O)C1CCC2/C(=C/C=C3C[C@@H](O)C(C)(O)[C@H](O)C3)CCCC21C` (stereo partly drawn) [YI-3b, 1α,2α,25-trihydroxy-2β-methyl-19-norvitamin D3], 1/730. Turning to `CCC1(O)[C@H](O)CC(=C/C=C2\CCCC3(C)C2CCC3[C@H](C)CCCC(C)(C)O)C[C@H]1O` (stereo partly drawn) [YI-4a, 1α,2β,25-trihydroxy-2α-ethyl-19-norvitamin D3], the “VDR affinity (relative binding affinity X=y/x)” value is recorded as 1/50. Same read-out and setting: to `CCC1(O)[C@H](O)CC(=C/C=C2\CCCC3(C)C2CCC3[C@H](C)CCCC(C)(C)O)C[C@H]1O` (stereo partly drawn) [YI-4b, 1α,2α,25-trihydroxy-2β-ethyl-19-norvitamin D3] belongs 1/2000. For the compound `COCC1(O)[C@H](O)CC(=C/C=C2\CCCC3(C)C2CCC3[C@H](C)CCCC(C)(C)O)C[C@H]1O` (stereo partly drawn) [YI-5a, 1α,2β,25-trihydroxy-2α-methoxymethyl-19-norvitamin D3], the “VDR affinity (relative binding affinity X=y/x)” value is given as 1/26.

As for `COCC1(O)[C@H](O)CC(=C/C=C2\CCCC3(C)C2CCC3[C@H](C)CCCC(C)(C)O)C[C@H]1O` (stereo partly drawn) [YI-5b, 1α,2α,25-trihydroxy-2β-methoxymethyl-19-norvitamin D3], the “VDR affinity (relative binding affinity X=y/x)” value is given as 1/820.
